{"source": "patent US20240252486A1", "about": "“ALGOSTATIC AGENTS FOR PREVENTING TRANSITION FROM ACUTE TO CHRONIC PAIN” (The Regents of the University of California, priority 2021, published 2024)", "key": {"formalin-injected mice [1]": {"tested_on": "formalin-injected mice", "test": "Formalin-induced chronic pain-like state (CPLS): persistent hypersensitivity to heat and mechanical stimuli", "assay_type": "in vivo, mouse", "settings": "for alleviation of the hypersensitive state (contralateral hyperalgesia): mouse, in vivo; for conversion to CPLS (contralateral hyperalgesia, PFD14): maximally effective dosages on PFD2-4: gabapentin 50 mg-kg^−1 IP, morphine 10 mg-kg^−1 subcutaneous, ketamine 4 mg-kg^−1 IP, ketoprofen 100 mg-kg^−1 IP, WT mice, formalin; for pain chronification (contralateral hyperalgesia): GW7647 10 mg-kg^−1 IP, post-procedural day 2-4"}, "mice and rats": {"tested_on": "mice and rats", "settings": "cited from earlier work; for sensory abnormalities caused by carrageenan injection, ultraviolet B-radiation or CCI: mice and rats"}, "PPAR-α": {"biological_target": "T1, PPAR-α (Homo sapiens, UniProt Q07869)", "T1 sequence (Q07869 1-468)": "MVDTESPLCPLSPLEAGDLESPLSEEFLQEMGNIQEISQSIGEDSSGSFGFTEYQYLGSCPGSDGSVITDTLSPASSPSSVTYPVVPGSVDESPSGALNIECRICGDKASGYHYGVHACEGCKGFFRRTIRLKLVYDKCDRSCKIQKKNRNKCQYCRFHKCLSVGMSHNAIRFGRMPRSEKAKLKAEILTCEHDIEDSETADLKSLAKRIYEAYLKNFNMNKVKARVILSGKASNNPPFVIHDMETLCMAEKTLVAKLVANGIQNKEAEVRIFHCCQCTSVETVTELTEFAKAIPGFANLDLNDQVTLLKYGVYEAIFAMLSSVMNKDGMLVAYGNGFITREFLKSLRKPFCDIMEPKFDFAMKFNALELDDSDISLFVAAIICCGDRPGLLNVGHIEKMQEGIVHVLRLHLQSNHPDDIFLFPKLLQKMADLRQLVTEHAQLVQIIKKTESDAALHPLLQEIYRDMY", "settings": "activation of PPAR-α by exogenous PEA; cited from earlier work"}, "[2]": {"settings": "in vivo; cited from earlier work"}, "[3]": {"tested_on": "fibrosarcoma-bearing mice", "settings": "cited from earlier work"}, "[4]": {"tested_on": "DRG neurons co-cultured with fibrosarcoma cells", "settings": "cited from earlier work"}, "[5]": {"tested_on": "PEA levels in diseased tissues of CCI and tumor-bearing mice", "settings": "cited from earlier work"}, "[6]": {"tested_on": "spinal-cord transcription", "test": "RNA sequencing and metabolomic analysis of L4-L6 spinal cord", "assay_type": "in vivo, mouse", "settings": "GW7647, post-injury", "experimental": "RNA sequencing and bioinformatics analysis: We extracted total RNA with the RNeasy Mini Kit (Qiagen). Samples with RNA integrity number ≥8.5 were kept for library construction. cDNA synthesis, amplification, library construction, and sequencing were performed at Novogene (Bejing, China) using the Illumina NovaSeq platform with paired-end 150 bp (PE 150) sequencing strategy. Downstream analysis was performed using a combination of programs including STAR, HTseq, Cufflink and Novogene's wrapped scripts. Alignments were parsed using the STAR program and differential expressions were determined using DESeq2/edgeR. Gene Ontology (GO) and Kyoto Encyclopedia of Genes and Genomes (KEGG) enrichment were implemented using the ClusterProfiler.\nMetabolomic analysis: Metabolomics analyses were performed at the West Coast Metabolomics Center of the University of California Davis, as described^55. Briefly, frozen lumbar spinal cord (L4-L6) fragments (˜5 mg) were homogenized in Eppendorf tubes (2 ml) for 2 min using metal spheres ([…] diameter) in a MM300 mill (Retsch, Germany). A mixture of isopropanol/acetonitrile/water (3/3/2, vol) was added to the grounded tissue (1 ml per 20 mg), stirred for 10 s and shaken at 4° C. for 5 min. […]"}, "formalin-injected mice [7]": {"tested_on": "formalin-injected mice", "test": "Formalin-induced paw edema", "assay_type": "in vivo, mouse", "settings": "pretreatment; ARN16186 10 mg-kg^−1 IP, ARN19702 30 mg-kg^−1 IP; wild-type mice, 1% formalin", "experimental": "Paw edema was measured with a digital caliper (Fisher Scientific, USA) and is expressed as the difference (A paw thickness, mm) between ipsilateral and contralateral paws."}, "naïve animals": {"tested_on": "naïve animals", "test": "Baseline nociceptive thresholds in naïve animals", "assay_type": "in vivo, mouse", "settings": "ARN19702 30 mg-kg^−1 IP, ARN16186 10 mg-kg^−1 IP"}, "formalin-injected mice [8]": {"tested_on": "formalin-injected mice", "test": "Formalin test: acute nocifensive behavior", "settings": "pretreatment; ARN16186 10 mg-kg^−1 IP, ARN19702 30 mg-kg^−1 IP; wild-type mice, 1% formalin"}, "macrophages": {"tested_on": "macrophages", "settings": "cited from earlier work"}, "rodents": {"tested_on": "rodents", "settings": "male (but not female) rodents; cited from earlier work"}, "[9]": {"tested_on": "male rat model of type-1 diabetes", "settings": "cited from earlier work"}, "naïve mice": {"tested_on": "naïve mice", "test": "Capsaicin-evoked nocifensive behavior", "assay_type": "in vivo, mouse"}, "activated leukocytes": {"tested_on": "activated leukocytes", "settings": "topical application; cited from earlier work"}}, "note": "Entries after “also recorded” stand apart in the source; their conditions may differ.", "data": [{"smiles": "CCC(=O)NC[C@H](Cc1ccc(OCCc2nc(-c3ccccc3)oc2C)cc1)N/C(C)=C\\C(=O)c1ccc(C(F)(F)F)cc1", "note": "[GW6471]", "values": [{"measurement": "loss of the ARN19702 effect on transition to CPLS", "setting": "formalin-injected mice [1]; wild-type animals pretreated with GW6471 4 mg-kg^−1 IP, 15 min prior to ARN19702", "value": "replicated"}, {"measurement": "effects of ARN077 on sensory abnormalities in the presence of the PPAR-α antagonist", "setting": "mice and rats; rats", "value": "prevented"}]}, {"smiles": "CN1CC[C@]23c4c5ccc(O)c4O[C@H]2[C@@H](O)C=C[C@H]3[C@H]1C5", "note": "[morphine]", "values": [{"measurement": "alleviation of the hypersensitive state (contralateral hyperalgesia)", "setting": "formalin-injected mice [1]", "value": "only temporarily alleviated"}]}, {"smiles": "NCC1(CC(=O)O)CCCCC1", "note": "[gabapentin]", "values": [{"measurement": "conversion to CPLS (contralateral hyperalgesia, PFD14)", "setting": "formalin-injected mice [1]", "value": "not mimicked; also recorded: failed to stop; also recorded: do not prevent; also recorded: fail to prevent"}, {"measurement": "alleviation of the hypersensitive state (contralateral hyperalgesia)", "setting": "formalin-injected mice [1]", "value": "only temporarily alleviated"}]}, {"smiles": "CCCCCCCCCCCCCCCC(=O)NCCO", "note": "[PEA, palmitoylethanolamide]", "values": [{"measurement": "CPLS", "setting": "formalin-injected mice [1]; on PFD2-4, PEA 30 mg-kg^−1 subcutaneous, fenofibrate 100 mg-kg^−1 IP", "value": "blocked"}, {"measurement": "sensory abnormalities caused by carrageenan injection, ultraviolet B-radiation or CCI", "setting": "mice and rats", "value": "mimicked"}, {"measurement": "inflammation", "setting": "PPAR-α", "value": "attenuates"}, {"measurement": "mitochondrial respiration", "setting": "PPAR-α", "value": "stimulates"}, {"measurement": "pain", "setting": "PPAR-α", "value": "attenuates"}]}, {"smiles": "NC(=O)c1cccc(-c2cccc(OC(=O)NC3CCCCC3)c2)c1", "note": "[URB597]", "values": [{"measurement": "emergence of formalin-induced CPLS (contralateral hyperalgesia and allodynia)", "setting": "formalin-injected mice [1]; URB597 3 mg-kg^−1 IP once daily from PFD3 to PFD5, male mice", "value": "prevents the emergence"}]}, {"smiles": "C[C@@H]1OC(=O)[C@@H]1NC(=O)OCCCCCc1ccccc1", "note": "[ARN077]", "values": [{"measurement": "persistent hypersensitivity (CPLS) elicited by formalin", "setting": "formalin-injected mice [1]; post-injury intrathecal infusion, 30 ng, 5 μL, at PFD2 and PFD4, assessed PFD14", "value": "stopped"}, {"measurement": "crossing of the blood-brain barrier", "setting": "[2]", "value": "cannot cross; also recorded: does not cross"}, {"measurement": "sensory abnormalities caused by carrageenan injection, ultraviolet B-radiation or CCI", "setting": "mice and rats", "value": "corrects"}, {"measurement": "mechanical hypersensitivity", "setting": "[3]", "value": "reduces"}, {"measurement": "calcium signaling", "setting": "[4]", "value": "rapidly normalizes"}, {"measurement": "PEA levels in diseased tissues", "setting": "[5]", "value": "restores baseline"}]}, {"smiles": "CNC1(c2ccccc2Cl)CCCCC1=O", "note": "(centres unmarked) [ketamine]", "values": [{"measurement": "conversion to CPLS (contralateral hyperalgesia, PFD14)", "setting": "formalin-injected mice [1]", "value": "not mimicked; also recorded: failed to stop; also recorded: do not prevent; also recorded: fail to prevent"}]}, {"smiles": "CC(C(=O)O)c1cccc(C(=O)c2ccccc2)c1", "note": "(centres unmarked) [ketoprofen]", "values": [{"measurement": "conversion to CPLS (contralateral hyperalgesia, PFD14)", "setting": "formalin-injected mice [1]", "value": "not mimicked; also recorded: failed to stop; also recorded: do not prevent; also recorded: fail to prevent"}]}, {"smiles": "CC(C)(Sc1ccc(CCN(CCCCC2CCCCC2)C(=O)NC2CCCCC2)cc1)C(=O)O", "note": "[GW7647]", "values": [{"measurement": "pain chronification (contralateral hyperalgesia)", "setting": "formalin-injected mice [1]; NAAA-overexpressing mice treated with 0.1% formalin", "value": "stopped"}, {"measurement": "pain chronification (contralateral hyperalgesia)", "setting": "formalin-injected mice [1]; wild-type mice treated with 1% formalin", "value": "stopped"}, {"measurement": "injury-associated changes in spinal-cord transcription", "setting": "[6]", "value": "prevented"}]}, {"smiles": "CCCCc1ccc(OC2C[C@H]3CC[C@@H](C2)N3S(=O)(=O)c2c(C)n[nH]c2C)cc1", "note": "(some centres unmarked) [ARN16186]", "values": [{"measurement": "protective effects of ARN19702 against CPLS (contralateral hyperalgesia)", "setting": "formalin-injected mice [1]; ARN16186 10 mg-kg^−1 IP once daily PFD1 to PFD3, male mice", "value": "mimicked"}, {"measurement": "NAAA-null phenotype (weakened nocifensive response, no inflammation or persistent hypersensitivity after formalin)", "setting": "formalin-injected mice [1]; pretreatment of wild-type mice, ARN19702 30 mg-kg^−1 IP, ARN16186 10 mg-kg^−1 IP", "value": "recapitulated"}, {"measurement": "persistent contralateral hyperalgesia (PFD14)", "setting": "formalin-injected mice [1]; pretreatment, ARN16186 10 mg-kg^−1 IP, ARN19702 30 mg-kg^−1 IP, wild-type mice, 1% formalin", "value": "prevents"}, {"measurement": "paw edema (PFD14)", "setting": "formalin-injected mice [7]", "value": "prevents"}, {"measurement": "baseline nociceptive thresholds", "setting": "naïve animals", "value": "Neither compound affected"}, {"measurement": "nocifensive response to formalin", "setting": "formalin-injected mice [8]", "value": "prevents"}]}, {"smiles": "CN(C)C(=N)N=C(N)N", "note": "[metformin]", "values": [{"measurement": "macrophage phenotype shift toward glycolysis / trained immunity", "setting": "macrophages", "value": "stopped"}, {"measurement": "neuropathic pain", "setting": "rodents", "value": "prevents"}, {"measurement": "therapeutic efficacy in painful peripheral neuropathy", "setting": "[9]", "value": "may exhibit therapeutic efficacy"}]}, {"smiles": "COc1cc(CNC(=O)CCCC/C=C/C(C)C)ccc1O", "note": "[capsaicin]", "values": [{"measurement": "median effective dose (ED50), nocifensive response", "setting": "naïve mice; forepaw CPS injection, formalin-naïve mice", "value": "~0.1", "unit": "µg"}, {"measurement": "half-maximal dose, nocifensive response", "setting": "naïve mice; intraplantar hind paw injection", "value": 0.1, "unit": "µg"}]}, {"smiles": "O=C(CCc1ccccc1)N[C@H]1COC1=O", "note": "[(S)-OOPP]", "values": [{"measurement": "PEA levels in activated leukocytes", "setting": "activated leukocytes", "value": "reinstates normal"}, {"measurement": "inflammatory responses induced by carrageenan or endotoxin", "setting": "activated leukocytes", "value": "blunts"}]}]}
